Test system: HepG2 cells
Type: cell-based
Details: HepG2, amounts used for photocrosslinking
Protocol: Cell culture and viability assays in the presence of photopolymerizing agents. HepG2 cells (American Type Culture Collection, Manassas, Va.) were cultured in 175 cm^2 flasks (Fisher, Springfield, N.J.) and were passaged preconfluency no more than 13 times. The cells were maintained in minimal essential medium (MEM; Gibco, Grand Island, N.Y.) supplemented with 5% fetal bovine serum, 100 ug/mL penicillin, and 100 ug/mL streptomycin and incubated at 5% CO2 and 37° C. The cells to be incorporated into hydrogels were added to the prepolymer solution containing initiator and were mixed gently prior to UV exposure.
In order to explore the effects of photoinitiator and UV exposure on cell death, individual components were tested in HepG2 cultures. 3.0×10^5 cells were seeded in six-well culture dishes and allowed to proliferate until near confluency. A solution of 300 mg/mL of 2,2-dimethyl-2-phenyl-acetophenone (Aldrich) in 1-vinyl-2-pyrrolidinone (Sigma) was added to MEM in concentrations of 0, 3, 5, and 10 ul/ml. […] Cell viability was measured by an Mi viability assay, which forms a purple precipitate by cleavage of the tetrazolium ring by mitochondrial dehydrogenase enzymes. […] The absorbance was measured at 570 nm with a SpectraMax Plus spectrophotometer (Molecular Devices, Sunnyvale, Calif.). […]

How did the “toxicity to cells of initiator solvent alone” value turn out when `C=CN1CCCC1=O` [1-vinyl-2-pyrrolidinone] was run?
The value was “not found to be toxic”.

Source: US8906684B2, “Three dimensional cell patterned biopolymer scaffolds and methods of making the same” (The Regents of the University of California, priority 2002, dated 2014)
